Measurements taken from ChEMBL document CHEMBL1201862, “PubChem BioAssay data set” (2004).
Active and inactive are the calls of the source.

Key:
[1] = molecular target: T1, Microphthalmia-associated transcription factor (Homo sapiens, UniProt O75030); assay: reducers of TRPM1 reporter luminescence, concentration series – cell-based, SK-MEL-5, cherry-picked, set 3, MITF inhibitor project, dose response (AID 493073); type: functional;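 further: SK-MEL-5 melanoma cells with luciferase driven by the MITF target TRPM1 promoter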
T1 sequence (O75030 whole entry): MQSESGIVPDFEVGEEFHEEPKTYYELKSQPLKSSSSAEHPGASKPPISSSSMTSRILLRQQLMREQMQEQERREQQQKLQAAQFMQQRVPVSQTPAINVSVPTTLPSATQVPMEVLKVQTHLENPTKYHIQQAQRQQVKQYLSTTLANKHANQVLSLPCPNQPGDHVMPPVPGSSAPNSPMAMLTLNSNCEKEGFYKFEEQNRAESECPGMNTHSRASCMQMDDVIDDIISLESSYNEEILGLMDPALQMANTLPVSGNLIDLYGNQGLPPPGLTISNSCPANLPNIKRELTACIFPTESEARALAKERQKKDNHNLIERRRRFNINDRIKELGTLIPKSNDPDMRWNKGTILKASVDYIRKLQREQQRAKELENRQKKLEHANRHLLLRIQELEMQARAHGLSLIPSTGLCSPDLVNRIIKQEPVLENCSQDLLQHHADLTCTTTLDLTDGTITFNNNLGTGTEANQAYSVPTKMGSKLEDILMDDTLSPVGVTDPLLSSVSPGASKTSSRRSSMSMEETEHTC

[2] = molecular target: Heat shock protein HSP 90-alpha (Homo sapiens, UniProt P07900); type: functional, organism-based
Vero = assay: cells; type: functional; settings: Chlorocebus sabaeus
Beta-galactosidase = Beta-galactosidase (Escherichia coli, UniProt Q8VNN2); assay: Dose response counterscreen for EBI2 assay utilizing the enzyme, b-galactosidase.; type: functional
[3] = luciferase reporter signal suppression in cells – H4 neuroglioma cells, luminescence, dose response (AID 1990); type: functional, cell-based
BJ [4] = assay: BJ-TERT fibroblast viability loss – cell-based, RAS-independent, luminescence, dose response (AID 1933); type: functional; settings: Homo sapiens
[5] = Luminescence Cell-Based Dose Response HTS to Identify Inhibitors of 5'UTR Stem-Loop Driven Prion Protein mRNA Translation in H4 Neuroglioblastoma Cells. [Related pubchem assays: 1827 (Project Summary), 1813 (Primary HTS)]; type: functional
[6] = alpha-synuclein stem-loop luciferase translation blockers – H4 neuroglioma cells, luminescence, confirmation (AID 1988); type: functional, cell-based
BJ [7] = assay: cells; type: functional, cell-based; settings: Homo sapiens
BJ [8] = assay: BJ-TERT-LT-ST fibroblast viability loss – cell-based, RAS-independent, luminescence, dose response (AID 1935); type: functional; settings: Homo sapiens;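 further: BJ fibroblasts immortalized with TERT plus LT and ST oncogenes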
[9] = DRD fibroblast viability loss – cell-based, non-viral oncogenic, luminescence, dose response (AID 1934); type: functional; settings: Homo sapiens
[10] = activation of miR-122 Renilla sensor silencing – cell-based, Huh7 psiCHECK-miR122, Renilla luciferase, cherry-picked, dose response (AID 651956); type: functional;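 further: huh7 hepatoma cells stably carrying a psiCHECK-2 miR-122 sensor plasmid; renilla luciferase signal reporting endogenous miR-122 activity after 48 h compound exposure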
[11] = Trypanosoma cruzi growth suppression in host cells – NIH3T3 host cells, beta-gal luminescence, confirmation (AID 2044); type: functional, cell-based;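 further: intracellular parasites grown in NIH/3T3 mouse fibroblasts as host cells; luminescent beta-galactosidase reporter signal from transgenic T. cruzi replicating inside host cells; inhibitors lower the luminescence signal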
[12] = NIH3T3 cell viability loss – ATP luminescence, mouse fibroblasts, counter-screen, dose response (AID 2010); type: functional, cell-based;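 further: cells exposed to compound for about 90 hours before reading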
[13] = molecular target: T2, Sentrin-specific protease 8 (Homo sapiens, UniProt Q96LD8); type: functional
T2 sequence (Q96LD8 whole entry): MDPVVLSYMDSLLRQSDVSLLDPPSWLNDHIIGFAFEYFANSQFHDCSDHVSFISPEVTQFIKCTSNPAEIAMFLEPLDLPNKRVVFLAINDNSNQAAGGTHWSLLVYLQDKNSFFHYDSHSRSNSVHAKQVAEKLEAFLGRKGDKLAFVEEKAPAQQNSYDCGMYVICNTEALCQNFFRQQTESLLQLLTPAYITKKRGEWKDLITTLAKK

[14] = molecular target: T2, Sentrin-specific protease 8; type: functional; remark: listed apart in the source
[15] = molecular target: T3, Histone-lysine N-methyltransferase NSD2 (Homo sapiens, UniProt O96028); type: biochemical
T3 sequence (O96028 whole entry): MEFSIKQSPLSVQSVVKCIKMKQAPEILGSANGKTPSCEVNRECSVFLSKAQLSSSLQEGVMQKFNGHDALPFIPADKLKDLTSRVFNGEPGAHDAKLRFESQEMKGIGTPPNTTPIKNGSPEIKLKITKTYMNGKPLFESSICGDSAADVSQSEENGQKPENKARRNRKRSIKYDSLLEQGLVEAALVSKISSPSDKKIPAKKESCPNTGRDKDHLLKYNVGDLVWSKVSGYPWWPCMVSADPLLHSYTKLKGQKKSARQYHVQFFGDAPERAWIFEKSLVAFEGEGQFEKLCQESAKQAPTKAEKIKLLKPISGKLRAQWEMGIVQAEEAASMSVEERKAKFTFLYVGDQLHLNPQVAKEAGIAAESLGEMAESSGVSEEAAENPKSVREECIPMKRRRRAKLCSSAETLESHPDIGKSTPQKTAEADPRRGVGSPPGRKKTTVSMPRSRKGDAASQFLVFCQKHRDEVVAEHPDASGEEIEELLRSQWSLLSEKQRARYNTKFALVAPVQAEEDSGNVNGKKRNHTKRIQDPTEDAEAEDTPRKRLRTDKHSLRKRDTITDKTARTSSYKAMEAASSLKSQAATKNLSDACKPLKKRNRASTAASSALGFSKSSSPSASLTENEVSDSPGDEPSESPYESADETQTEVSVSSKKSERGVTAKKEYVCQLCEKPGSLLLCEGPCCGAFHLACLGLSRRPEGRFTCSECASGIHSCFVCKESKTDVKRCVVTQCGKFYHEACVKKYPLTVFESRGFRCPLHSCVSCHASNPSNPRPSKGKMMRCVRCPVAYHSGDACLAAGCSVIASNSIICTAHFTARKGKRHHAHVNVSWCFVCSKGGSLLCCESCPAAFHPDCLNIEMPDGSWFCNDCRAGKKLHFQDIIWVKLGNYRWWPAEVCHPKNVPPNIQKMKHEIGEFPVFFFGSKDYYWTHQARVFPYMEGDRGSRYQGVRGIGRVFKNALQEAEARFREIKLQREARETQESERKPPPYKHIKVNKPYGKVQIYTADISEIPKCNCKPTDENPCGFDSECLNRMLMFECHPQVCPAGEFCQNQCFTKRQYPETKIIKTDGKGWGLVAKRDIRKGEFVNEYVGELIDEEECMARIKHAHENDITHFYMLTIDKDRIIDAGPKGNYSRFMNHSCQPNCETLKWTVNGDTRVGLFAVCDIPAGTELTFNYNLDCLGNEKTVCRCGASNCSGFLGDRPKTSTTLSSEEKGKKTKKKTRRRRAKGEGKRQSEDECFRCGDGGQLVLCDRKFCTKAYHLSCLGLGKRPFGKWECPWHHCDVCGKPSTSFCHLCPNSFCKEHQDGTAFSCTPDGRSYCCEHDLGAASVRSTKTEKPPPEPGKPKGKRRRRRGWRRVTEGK

[16] = molecular target: T4, Replicative DNA helicase DnaB (Mycobacterium tuberculosis, UniProt P9WMR3); assay: DnaB intein splicing inhibitors, dose response, biochemical, cell-free fluorescence (AID 449749); type: functional
T4 sequence (P9WMR3 whole entry): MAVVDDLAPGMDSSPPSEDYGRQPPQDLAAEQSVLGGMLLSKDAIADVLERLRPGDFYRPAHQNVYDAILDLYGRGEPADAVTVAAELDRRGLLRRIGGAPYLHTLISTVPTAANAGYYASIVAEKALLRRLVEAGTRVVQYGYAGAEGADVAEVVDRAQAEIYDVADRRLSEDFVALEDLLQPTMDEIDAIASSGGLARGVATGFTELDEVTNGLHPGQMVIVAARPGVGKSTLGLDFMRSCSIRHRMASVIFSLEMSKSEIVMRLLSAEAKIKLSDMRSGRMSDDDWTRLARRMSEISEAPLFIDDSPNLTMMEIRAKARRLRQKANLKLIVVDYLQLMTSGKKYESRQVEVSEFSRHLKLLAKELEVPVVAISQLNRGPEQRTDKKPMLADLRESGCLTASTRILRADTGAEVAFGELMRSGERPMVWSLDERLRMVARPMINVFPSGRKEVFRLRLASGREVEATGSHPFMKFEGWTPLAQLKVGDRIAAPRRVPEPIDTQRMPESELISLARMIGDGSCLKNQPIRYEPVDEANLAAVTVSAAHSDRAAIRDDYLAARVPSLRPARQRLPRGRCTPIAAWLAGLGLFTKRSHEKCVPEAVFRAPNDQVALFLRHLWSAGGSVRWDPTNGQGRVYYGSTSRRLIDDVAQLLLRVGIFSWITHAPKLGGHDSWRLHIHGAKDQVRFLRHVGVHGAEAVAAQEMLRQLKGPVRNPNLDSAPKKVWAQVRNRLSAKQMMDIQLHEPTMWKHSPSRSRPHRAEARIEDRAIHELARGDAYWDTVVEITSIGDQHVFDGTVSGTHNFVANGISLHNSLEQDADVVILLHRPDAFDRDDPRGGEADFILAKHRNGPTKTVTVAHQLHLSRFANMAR

Protein RecA = molecular target: T5, Protein RecA (Mycobacterium tuberculosis, UniProt P9WHJ3); assay: Fluorescence Cell-Free Homogeneous Dose Retest to Identify Inhibitors of RecA-Intein Splicing Activity. [Related pubchem assays (depositor defined):AID2097, AID2223, AID489010, AID492950]; type: functional
T5 sequence (P9WHJ3 whole entry): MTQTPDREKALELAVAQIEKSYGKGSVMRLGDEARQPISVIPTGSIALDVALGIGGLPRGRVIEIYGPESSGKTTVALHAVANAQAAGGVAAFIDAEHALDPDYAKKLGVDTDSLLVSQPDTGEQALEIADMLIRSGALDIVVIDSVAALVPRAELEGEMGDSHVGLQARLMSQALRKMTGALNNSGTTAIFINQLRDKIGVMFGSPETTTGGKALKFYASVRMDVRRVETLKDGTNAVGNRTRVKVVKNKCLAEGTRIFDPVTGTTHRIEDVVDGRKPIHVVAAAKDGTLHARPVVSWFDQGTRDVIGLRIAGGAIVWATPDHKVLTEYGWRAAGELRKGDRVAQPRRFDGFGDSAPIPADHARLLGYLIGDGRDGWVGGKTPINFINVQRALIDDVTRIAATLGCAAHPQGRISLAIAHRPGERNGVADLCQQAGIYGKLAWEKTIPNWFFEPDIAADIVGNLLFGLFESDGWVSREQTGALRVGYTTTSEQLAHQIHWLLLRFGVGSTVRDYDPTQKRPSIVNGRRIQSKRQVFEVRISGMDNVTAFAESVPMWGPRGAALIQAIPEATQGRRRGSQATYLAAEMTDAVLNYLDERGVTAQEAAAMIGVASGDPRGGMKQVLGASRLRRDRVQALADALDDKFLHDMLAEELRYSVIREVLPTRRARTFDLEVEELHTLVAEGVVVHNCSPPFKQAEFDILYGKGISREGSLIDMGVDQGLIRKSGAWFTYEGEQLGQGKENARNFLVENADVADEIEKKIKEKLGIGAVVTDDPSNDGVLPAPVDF

Chain of Beta-galactosidase (Q8VNN2 whole entry): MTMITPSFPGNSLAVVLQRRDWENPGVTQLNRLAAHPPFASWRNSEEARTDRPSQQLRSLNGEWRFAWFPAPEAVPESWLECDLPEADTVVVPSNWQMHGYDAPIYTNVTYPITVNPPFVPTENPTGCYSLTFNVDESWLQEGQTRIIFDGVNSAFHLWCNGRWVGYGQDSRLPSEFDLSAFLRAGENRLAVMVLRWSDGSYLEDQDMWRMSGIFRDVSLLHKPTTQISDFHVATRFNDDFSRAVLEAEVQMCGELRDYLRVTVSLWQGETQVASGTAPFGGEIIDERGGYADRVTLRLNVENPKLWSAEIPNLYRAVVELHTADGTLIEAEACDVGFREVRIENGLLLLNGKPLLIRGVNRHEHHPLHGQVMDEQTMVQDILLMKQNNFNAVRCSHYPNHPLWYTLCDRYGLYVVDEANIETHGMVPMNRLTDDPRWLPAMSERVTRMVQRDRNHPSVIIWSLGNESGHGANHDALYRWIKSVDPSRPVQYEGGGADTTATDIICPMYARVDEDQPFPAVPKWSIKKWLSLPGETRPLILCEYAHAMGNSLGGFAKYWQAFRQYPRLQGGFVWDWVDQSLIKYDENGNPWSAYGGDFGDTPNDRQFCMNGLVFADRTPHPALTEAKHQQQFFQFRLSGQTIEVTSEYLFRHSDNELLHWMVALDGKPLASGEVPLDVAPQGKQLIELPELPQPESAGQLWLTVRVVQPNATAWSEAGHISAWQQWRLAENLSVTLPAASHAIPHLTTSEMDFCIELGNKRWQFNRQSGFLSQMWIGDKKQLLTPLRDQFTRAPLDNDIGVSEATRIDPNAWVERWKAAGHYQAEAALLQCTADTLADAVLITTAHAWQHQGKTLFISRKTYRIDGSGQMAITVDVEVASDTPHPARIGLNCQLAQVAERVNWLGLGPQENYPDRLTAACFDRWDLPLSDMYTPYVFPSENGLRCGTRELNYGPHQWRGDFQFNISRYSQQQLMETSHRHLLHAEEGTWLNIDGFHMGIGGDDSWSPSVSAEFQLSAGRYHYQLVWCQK

O=[N+]([O-])/C=C\c1ccc(N2CCCC2)c(F)c1
AC50 [1]: 13.4 µM (active)
AC50 [2]: 8.22 µM (active)
CC50 (Vero): 18.6 µM (active)

O=C(COc1ccc(Cl)cc1)N1CCN(S(=O)(=O)c2ccc(Cl)cc2)CC1
IC50 (Beta-galactosidase): > 80 µM (inactive)

COc1ccccc1N1CCN(C(=O)c2ccc3[nH]c(C)c(C)c3c2)CC1
EC50 [3]: 3.53 µM (active)
EC50 (BJ [4]): 2.61 µM (active)
EC50 [5]: 2.14 µM (active)
EC50 [6]: 190 nM (active)
EC50 (BJ [7]): 68.5 µM (active)
EC50 (BJ [8]): 2.22 µM (inconclusive)
EC50 [9]: 2.4 µM (active)
IC50 (Beta-galactosidase): > 80 µM (inactive)

O=C(CNCCC1=CCCCC1)Nc1ccccc1N1CCCCCC1
AC50 [10]: 2.54 µM (active)

CNC(=O)C[C@@H]1CC[C@@H]2[C@@H](COc3ccc(NC(=O)c4cccc(OC)c4)cc3C(=O)N2C)O1
AC50 [10]: 67.7 µM (active)

C/C=C/c1ccc2c(c1)O[C@H](CN(C)C(=O)Cc1cccnc1)[C@H](C)CN([C@H](C)CO)S2(=O)=O
AC50 [10]: 10.7 µM (active)

O=C(c1ccco1)N1CCN(C(=O)c2cc3c(s2)-c2ccccc2OC3)CC1
IC50 (Beta-galactosidase): > 80 µM (inactive)

O=C(Nc1ccccc1N1CCCC1)c1ccc([N+](=O)[O-])o1
EC50 [11]: 105 nM (active)
EC50 [12]: 13.5 µM (active)
IC50 [13]: 31.3 µM (active)
IC50 [14]: 66.9 µM (inactive)

Cc1ccc(C)c(N/C([S-])=C(/C(=O)c2ccc(Cl)s2)[n+]2ccccc2)c1
IC50 [13]: 9.94 µM (active)
IC50 [14]: 5.82 µM (active)

COc1ccc(-c2ccc(C(c3c(C)n[nH]c3O)c3c(C)n[nH]c3O)o2)c([N+](=O)[O-])c1
IC50 [13]: 28.7 µM (active)
IC50 [14]: 15.6 µM (active)
AC50 [15]: > 20 µM (inactive)

CCN1CCN(C(=O)/C=C/c2ccc(C(C)C)cc2)CC1
IC50 (Beta-galactosidase): > 80 µM (inactive)

N#CC(=C1CCCC1)c1nc(-c2ccc(Cl)cc2)cs1
IC50 (Beta-galactosidase): > 80 µM (inactive)

COC(=O)CCCC1=CC2=CC(=O)C(C)(OC(=O)c3cccs3)C(=O)C2=CN1CCCCO (stereo not drawn)
IC50 [13]: 7.79 µM (active)
IC50 [14]: 5.99 µM (active)

Cc1[nH][nH]c(=O)c1C(c1ccc(-c2ccc(Cl)c(Cl)c2)o1)c1c(C)[nH][nH]c1=O
AC50 [16]: 281 nM (active)
EC50 (Protein RecA): 305 nM (active)
IC50 [13]: 18.8 µM (active)
IC50 [14]: 8.73 µM (active)
